Test results reported in PubChem BioAssay AID1259407 (Chemical Carcinogenesis Research Information System (CCRIS), 2018).
Activity calls are given as the source filed them. No rule for the calls is given here.

Test system: CCRIS mutagenicity, Ames/micronucleus/aberration tests
Assay: CCRIS mutagenicity studies
[1] = Test System: AMES SALMONELLA TYPHIMURIUM, Strain/Indicator: TA98, Metabolic Activation: NONE, Method: STANDARD PLATE
[2] = Test System: AMES SALMONELLA TYPHIMURIUM, Strain/Indicator: TA100, Metabolic Activation: NONE, Method: STANDARD PLATE
[3] = Test System: AMES SALMONELLA TYPHIMURIUM, Strain/Indicator: TA1535, Metabolic Activation: NONE, Method: STANDARD PLATE
[4] = Test System: AMES SALMONELLA TYPHIMURIUM, Strain/Indicator: TA98, Metabolic Activation: NONE, Method: PREINCUBATION
[5] = Test System: AMES SALMONELLA TYPHIMURIUM, Strain/Indicator: TA100, Metabolic Activation: NONE, Method: PREINCUBATION

With CN1C(=O)CC(=O)N(c2ccccc2)c2cc(Cl)ccc21 the mutagenic call [1] was “inactive; negative”, the mutagenic call (Test System: AMES SALMONELLA TYPHIMURIUM, Strain/Indicator: TA98, Metabolic Activation: RAT, LIVER, S-9, PHENOBARBITAL AND 5,6-BENZOFLAVONE, Method: STANDARD PLATE) was “inactive; negative” and the mutagenic call [2] was “inactive; negative”. The mutagenic call (Test System: AMES SALMONELLA TYPHIMURIUM, Strain/Indicator: TA100, Metabolic Activation: RAT, LIVER, S-9, PHENOBARBITAL AND 5,6-BENZOFLAVONE, Method: STANDARD PLATE) was “inactive; negative”, the mutagenic call [3] was “inactive; negative” and the mutagenic call (Test System: AMES SALMONELLA TYPHIMURIUM, Strain/Indicator: TA1535, Metabolic Activation: RAT, LIVER, S-9, PHENOBARBITAL AND 5,6-BENZOFLAVONE, Method: STANDARD PLATE) was “inactive; negative”. For the same compound, the mutagenic call (Test System: AMES SALMONELLA TYPHIMURIUM, Strain/Indicator: TA1537, Metabolic Activation: NONE, Method: STANDARD PLATE) was “inactive; negative”, the mutagenic call (Test System: AMES SALMONELLA TYPHIMURIUM, Strain/Indicator: TA1537, Metabolic Activation: RAT, LIVER, S-9, PHENOBARBITAL AND 5,6-BENZOFLAVONE, Method: STANDARD PLATE) was “inactive; negative” and the mutagenic call (Test System: E. COLI, Strain/Indicator: WP2 UVRA, Metabolic Activation: NONE, Method: STANDARD PLATE) was “inactive; negative”.

For c1cnc2c(c1)ccc1ncccc12, the mutagenic call (Test System: AMES SALMONELLA TYPHIMURIUM, Strain/Indicator: TA100, Metabolic Activation: RAT, LIVER, S-9, PHENOBARBITAL AND 5,6-BENZOFLAVONE, Method: PREINCUBATION) was “active; positive”.

With CCCC(=O)Cl the mutagenic call (Test System: AMES SALMONELLA TYPHIMURIUM, Strain/Indicator: TA98, Metabolic Activation: HAMSTER, LIVER, S-9, AROCLOR 1254 (30%), Method: PREINCUBATION) was “inactive; negative”, the mutagenic call [4] was “inactive; negative” and the mutagenic call (Test System: AMES SALMONELLA TYPHIMURIUM, Strain/Indicator: TA98, Metabolic Activation: RAT, LIVER, S-9, AROCLOR 1254 (30%), Method: PREINCUBATION) was “inactive; negative”. For the same compound, the mutagenic call (Test System: AMES SALMONELLA TYPHIMURIUM, Strain/Indicator: TA100, Metabolic Activation: HAMSTER, LIVER, S-9, AROCLOR 1254 (30%), Method: PREINCUBATION) was “inactive; negative”, the mutagenic call [5] was “inactive; negative” and the mutagenic call (Test System: AMES SALMONELLA TYPHIMURIUM, Strain/Indicator: TA100, Metabolic Activation: RAT, LIVER, S-9, AROCLOR 1254 (30%), Method: PREINCUBATION) was “inactive; negative”.

c1ccc2c(OCC3CO3)cccc2c1 (configuration not stated) was tested, and the mutagenic call [2] was “active; positive”, the mutagenic call (Test System: AMES SALMONELLA TYPHIMURIUM, Strain/Indicator: TA104, Metabolic Activation: NONE, Method: STANDARD PLATE) was “active; positive” and the mutagenic call [3] was “active; positive”. For the same compound, the mutagenic call (Test System: AMES SALMONELLA TYPHIMURIUM, Strain/Indicator: TA4001, Metabolic Activation: NONE, Method: STANDARD PLATE) was “active; positive” and the mutagenic call (Test System: AMES SALMONELLA TYPHIMURIUM, Strain/Indicator: TA4006, Metabolic Activation: NONE, Method: STANDARD PLATE) was “active; positive”.

With CC[C@]1(O)C[C@@H]2CN(CCc3c([nH]c4ccccc34)[C@@](C(=O)OC)(c3cc4c(cc3OC)N(C)[C@H]3[C@@](O)(C(=O)OC)[C@H](OC(C)=O)[C@]5(CC)C=CCN6CC[C@]43[C@@H]65)C2)C1 the mutagenic call (End Point: IN VITRO CHROMOSOMAL ABERRATIONS, Test System: CHL/IU CELLS, Metabolic Activation: NONE) was “active; positive (ploidy changes)”, the mutagenic call (End Point: IN VITRO MICRONUCLEUS, Test System: CHL/IU CELLS, Metabolic Activation: NONE) was “active; positive” and the mutagenic call (End Point: IN VITRO MICRONUCLEUS, Test System: CHO CELLS, Metabolic Activation: RAT, LIVER, S-9, AROCLOR 1254) was “active; positive”. For the same compound, the mutagenic call (End Point: IN VITRO MICRONUCLEUS, Test System: HAMSTER V79 CELLS, Metabolic Activation: NONE) was “active; positive”, the mutagenic call (End Point: IN VITRO MICRONUCLEUS, Test System: HUMAN PERIPHERAL BLOOD LYMPHOCYTES (FEMALES, AGE LESS THAN 30 AND AGE GREATER THAN 50 YR), Metabolic Activation: NONE) was “micronuclei elevated in elderly donors” and the mutagenic call (End Point: IN VITRO MICRONUCLEUS, Test System: V79 CELLS, Metabolic Activation: NONE) was “active; positive”. The mutagenic call (End Point: IN VIVO CHROMOSOMAL ABERRATIONS, Test System: BONE MARROW CELLS, Species: MOUSE, Strain/Sex: SWISS/MALE, FEMALE, Route: IP) was “active; positive”, the mutagenic call (End Point: IN VIVO MICRONUCLEUS, Test System: POLYCHROMATIC ERYTHROCYTES, Species: MOUSE, Strain/Sex: ALBINO SWISS/MALE, Route: IP) was “active; positive” and the mutagenic call (End Point: IN VIVO MICRONUCLEUS, Test System: POLYCHROMATIC ERYTHROCYTES, Species: MOUSE, Strain/Sex: SWISS/MALE, FEMALE, Route: IP) was “active; positive”. For the same compound, the mutagenic call [4] was “inactive; negative”, the mutagenic call [1] was “inactive; negative” and the mutagenic call (Test System: AMES SALMONELLA TYPHIMURIUM, Strain/Indicator: TA98, Metabolic Activation: S-9, Method: PREINCUBATION) was “inactive; negative”. For the same compound, the mutagenic call (Test System: AMES SALMONELLA TYPHIMURIUM, Strain/Indicator: TA98, Metabolic Activation: S-9, Method: STANDARD PLATE) was “inactive; negative”, the mutagenic call [5] was “inactive; negative” and the mutagenic call [2] was “inactive; negative”. The mutagenic call (Test System: AMES SALMONELLA TYPHIMURIUM, Strain/Indicator: TA100, Metabolic Activation: S-9, Method: PREINCUBATION) was “inactive; negative”, the mutagenic call (Test System: AMES SALMONELLA TYPHIMURIUM, Strain/Indicator: TA100, Metabolic Activation: S-9, Method: STANDARD PLATE) was “inactive; negative” and the mutagenic call (Test System: AMES SALMONELLA TYPHIMURIUM, Strain/Indicator: TA1537, Metabolic Activation: S-9, Method: STANDARD PLATE) was “inactive; negative”. The mutagenic call (Test System: E. COLI, Strain/Indicator: WP2 (HCR), Metabolic Activation: NONE, Method: STANDARD PLATE) was “inactive; negative”, the mutagenic call (Test System: E. COLI, Strain/Indicator: WP2 (HCR), Metabolic Activation: S-9, Method: STANDARD PLATE) was “inactive; negative” and the mutagenic call (Test System: MOUSE LYMPHOMA, Strain/Indicator: L5178Y(TK+/TK-), Metabolic Activation: NONE, Method: MICROWELL) was “active; positive”.
